Laboratory results as given in patent publication US10906169B1, “Muscle-powered biological machines” (The Board of Trustees of the University of Illinois, priority 2016, dated 2021).
Entries after “also recorded” stand apart in the source; their conditions may differ.

Columns and labels:
EBs containing MNs = test: Neurite growth from embryoid bodies on 2D ECM-coated substrates; assay type: cell-based, mouse
Method: 4. Neurite Growth Measurements. After day 9 of differentiation, EBs were plated on either collagen I or Matrigel™ coated dishes in complete neural differentiation medium. […] Live samples were imaged on days 10-14 using an inverted fluorescent microscope for 2D cultures (IX81, Olympus) or a confocal microscope for 3D tissue rings (LSM710, Zeiss). The NeuronJ plug-in (ImageScience) for ImageJ was used to measure neurite growth distances (FIG. 17).
When allowed to adhere to natural ECM substrates such as collagen I13A and Matrigel™ (FIG. 13b and FIG. 19b), EBs containing MNs attached readily and extended neurites across the gels. Neurites grew 417.5±154.8 and 999.1+356.9 μm after 4 days of attachment (propagating at nearly linear rates of 88.6 and 264.8 μm day^−1) on collagen I and Matrigel™ surfaces, respectively (FIG. 13c). Similarly, EBs adhered to (and extended neurites across) the surface of 2D layers of differentiated C2C12s (FIG. 13d and FIG. 19c). After 5 days of co-culture, we identified clusters of post-synaptic acetylcholine receptors (visualized with fluorescently-conjugated α-BTX, which binds to a subunit of AChR) near the termination of neurite extensions on myotubes (FIG. 13e).

[1] = tested on: MNs in multi-layered tissue rings; test: Chemical stimulation of motor neurons in multi-layered tissue rings (muscle contraction tracked by video); assay type: cell-based, mouse; details: for frequency of muscle twitching / average displacement: day 9 after co-culture; for effect on glutamate-induced muscle contractions: 25 μM curare added after glutamate stimulation
Method: To stimulate motor neurons in tissue rings, glutamate was added to cell culture medium in a bath application of either 200 μM or 400 μM, as noted. Tissues were then transferred to fresh medium. After chemical stimulation, the nicotinic AChR antagonist curare was added to cell culture medium in a bath application of 25 μM. Tissues were then rinsed in PBS and transferred to fresh medium.
Muscle contraction within tissue rings was captured using a digital camera on a stereomicroscope with a capture rate of 5-10 frames s^−1. Image sequences were exported to .avi files. A custom Matlab script was used to calculate x-y displacement of user-specified regions of interest using normalized 2D cross-correlation, as described previously^3.
On day 9 after co-culture, we chemically stimulated MNs by adding glutamate. Multi-layered tissue rings were first subjected to a bath application of 200 μM glutamate in complete neural differentiation medium. Through video recordings, we observed that local muscle contraction began in response to chemical stimulation of MNs (FIG. 16d). When we increased the glutamate concentration from 200 to 400 μM, the frequency of muscle twitching increased from 1.08 to 1.33 contractions sec^−1, while the average displacement decreased from 6.3±0 to 4.4±0.2 μm per twitch (FIG. 16e).

collagen I: natural ECM substrate; collagen I-coated dishes from Gibco
rate of neurite propagation (nearly linear) (EBs containing MNs; EBs attached to the coated surface, over 4 days): 88.6 μm day^−1
neurite growth (EBs containing MNs; after 4 days of attachment of EBs to the coated surface): 417.5±154.8 μm

N[C@@H](CCC(=O)O)C(=O)O [glutamate, L-glutamic acid]
frequency of contraction ([1]; 200 μM glutamate (FIG. 16e, mean values)): 1.08 contractions/s
frequency of muscle twitching ([1]; 200 μM glutamate bath application): 1.08 contractions sec^−1
average displacement ([1]; 200 μM glutamate): 6.3±0 μm per twitch
frequency of contraction ([1]; 400 μM glutamate (FIG. 16e, mean values)): 1.33 contractions/s
frequency of muscle twitching ([1]; 400 μM glutamate bath application): 1.33 contractions sec^−1
average displacement ([1]; 400 μM glutamate): 4.4±0.2 μm per twitch
dependence of contraction frequency on concentration ([1]; chemical stimulation of MNs, 200 and 400 μM glutamate): frequency of contraction increasing with glutamate concentration

(+)-tubocurarine chloride hydrochloride pentahydrate [curare]
frequency of contraction after addition ([1]; 25 μM curare (FIG. 16e)): 0 observed contractions
effect on glutamate-induced muscle contractions [1]: halted the contractions; also recorded: terminated the contractions
effect on glutamate-induced muscle contractions ([1]; listed as tubocurarine chloride (curare)): halted the contractions
